The values that follow come from patent publication EP0341735A1, “N-acetyl-3-fluoroneuraminic acid as antiviral drug” (priority 1988, dated 1989).

Each structure is given as a SMILES string.

As usually defined, the inhibition is the relative decrease from the control value, in per cent.

In data set [1] the target is sialidase produced by Vibrio colerae (Vibrio cholerae serotype O1, UniProt P0C6E9). Description: Sialidase inhibition, 4-MU-NeuAc fluorescence assay. Particulars: same procedure as Example 1. It is filed as biochemical. The protocol: (§1) 100 µ ℓ of a 0.5 mM solution of 4-methylumbelliferyl-N-acetylneuraminic acid (4-MU-NeuAc) (a product of Nakarai Kagaku Co., Ltd) of the following formula: [drawing 15]
sialidase produced by Vibrio colerae, sequence (P0C6E9 25-781): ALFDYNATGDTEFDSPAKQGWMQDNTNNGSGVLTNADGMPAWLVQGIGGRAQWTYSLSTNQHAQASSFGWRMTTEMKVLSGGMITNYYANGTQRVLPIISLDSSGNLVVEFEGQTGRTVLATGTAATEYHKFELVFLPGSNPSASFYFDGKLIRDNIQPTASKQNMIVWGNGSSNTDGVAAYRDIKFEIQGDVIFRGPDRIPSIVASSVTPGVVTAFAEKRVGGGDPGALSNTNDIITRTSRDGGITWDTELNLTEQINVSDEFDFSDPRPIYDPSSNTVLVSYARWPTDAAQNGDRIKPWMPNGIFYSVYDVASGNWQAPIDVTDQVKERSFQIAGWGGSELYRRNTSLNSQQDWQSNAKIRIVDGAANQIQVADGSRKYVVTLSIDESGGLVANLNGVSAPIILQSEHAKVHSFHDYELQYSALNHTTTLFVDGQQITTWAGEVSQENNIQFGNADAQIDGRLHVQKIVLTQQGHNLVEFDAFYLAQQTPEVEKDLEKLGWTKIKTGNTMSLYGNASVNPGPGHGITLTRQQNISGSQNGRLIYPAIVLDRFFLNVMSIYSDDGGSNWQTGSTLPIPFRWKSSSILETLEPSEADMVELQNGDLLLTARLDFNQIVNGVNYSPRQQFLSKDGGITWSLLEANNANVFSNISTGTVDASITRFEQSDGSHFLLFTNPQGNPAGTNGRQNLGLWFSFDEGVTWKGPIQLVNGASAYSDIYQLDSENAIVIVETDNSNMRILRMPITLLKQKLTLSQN
(§2) 100 µ ℓ of a 200 mM sodium acetate buffer (pH 4.2) and 100 µ ℓ of N-acetyl-3-fluoroneuraminic acid (compound 1) 4 to 400 µM were added to an enzyme solution ([…]) (10 mU/ml) of sialidase (a product of Nakarai Kagaku Co., Ltd.) product from Arthrobacter ureafaciens in a test tube, and the reaction was conducted in a water bath at 37 °C for 15 min. Then, 3.6 ml of a 200 mM glycine/NaOH buffer (pH 10.4) was added to the reaction mixture in the test tube to terminate the reaction. the concentration of 4-methylumbelliferone formed in the reaction solution was determined from its fluorescence intensity at an excitation wave length of 360 nm and an emission wave length of 440 nm with a fluorescence spectrophotometer (a product of Hitachi, Ltd.). The amount of free sialic acid was determined from this value.
(§3) The sialidase inhibition rate was determined according to the following formula: [formula]
(§4) The same procedure as that of Example 1 was repeated except that sialidases produced by Vibrio colerae and Streptococcus sp. were used, and then the inhibition rate of Compound 1 was determined.

Data set [2] concerns sialidase produced by Streptococcus sp. The description is as above. Particulars: same procedure as Example 1. It is filed as biochemical. As to the method:
as §1, §2, §3, §4

In data set [3] the test system is sialidase produced by Arthrobacter ureaffacients. Described as above. Particulars: for Inhibition rate / NeuAc released: substrate 4-MU-NeuAc, pH 4.2, 37 °C, 15 min. The data set is classed as biochemical, Arthrobacter ureafaciens. As to the method: as §1, §2, §3
Data set [4] deals with Female ICR mice. The data set can be described thus: Acute toxicity test by intravenous injection. It is filed as in vivo. The note with it: for Number of deaths: Intravenous injection, 10 mice per level, observation period 14 days. As to the method:
The acute toxicity test of Compound 1 was conducted by an intravenous injection in female mice.
Animals used: Female ICR mice (6 week old) Medicine concentration: 13 to 15 W/V % in distilled water Number of mice for each level: 10 Observation period: 14 days.

Take `CC(=O)N[C@H]1[C@H]([C@H](O)[C@H](O)CO)OC(O)(C(=O)O)C(F)[C@@H]1O` (stereo partly drawn) [Compound 1, N-acetyl-3-fluoroneuraminic acid]: the NeuAc released in data set [1] (Compound 1 at 0.001 mM) is 5.9 n mol; in data set [1] (Compound 1 at 0.01 mM), 5.3 n mol; in data set [1] (Compound 1 at 0.1 mM), 2.8 n mol; in data set [2] (Compound 1 at 0.001 mM), 10.5 n mol; in data set [2] (Compound 1 at 0.01 mM), 8.5 n mol; in data set [2] (Compound 1 at 0.1 mM), 2.8 n mol. Besides, the NeuAc released in data set [3] (Compound 1 at 0.001 mM) is 23.0 n mol; in data set [3] (Compound 1 at 0.01 mM), 14.0 n mol; in data set [3] (Compound 1 at 0.1 mM), 4.9 n mol. Further, the inhibition at 1 µM in data set [1] (Compound 1 at 0.001 mM, read-out: Inhibition rate) was -0.2%. For the same compound, in data set [1] (Compound 1 at 0.01 mM, read-out: Inhibition rate), the inhibition at 10 µM turned out to be 8.4%. The inhibition at 100 µM in data set [1] (Compound 1 at 0.1 mM, read-out: Inhibition rate) turned out to be 52.7%. The Inhibition rate in data set [2] (Compound 1 at 0.001 mM) is listed as 7.4%; in data set [2] (Compound 1 at 0.01 mM), 24.6%; in data set [2] (Compound 1 at 0.1 mM) it was 75.4%; in data set [3] (Compound 1 at 0.001 mM), 14.3%; in data set [3] (Compound 1 at 0.01 mM) it was 48.9%; in data set [3] (Compound 1 at 0.1 mM), 82.0%. Also, in data set [3] (Fig. 1, two different substrate concentrations), the “inhibition pattern (Dixon plot)” value is given as “competitive with the substrate”. Besides, the “activity of sialidase (inhibition, in words)” value in data set [3] (conclusion from Table 1) is listed as “remarkably inhibits”. The Number of deaths in data set [4] (dose 200 mg), in data set [4] (dose 400 mg) and in data set [4] (dose 600 mg) was 0 throughout. In data set [4] (conclusion from Table 4), the “toxicity (in words)” value is listed as “quite low”.
